Data on three molecules can be found in article PMC4773988, “Structure-based Inhibitor Design for the Intrinsically Disordered Protein c-Myc” (Scientific Reports, 2016).

One series in a line: Solubility in water. In kind it is physicochemical.
For series [1] the following is noted: cited from earlier work.

With `Cc1ccccc1C(=O)NC(NC(=S)Nc1cc(Cl)cc(Cl)c1Cl)C(Cl)(Cl)Cl` (stereo not drawn) [PKUMDL-YC-1204], the Solubility in water entry in the series “Solubility in water” was “less soluble in water”.
On the same count and under the same terms, as for `O=C(NC(NC(=S)Nc1ccc(I)cc1)C(Cl)(Cl)Cl)OCc1ccccc1` (stereo not drawn) [PKUMDL-YC-1203], the entry is “less soluble in water”.
JY-3-094: the Cell penetration result in series [1] is given as “penetrates cells poorly”.
